Calls of active or inactive are those of the source.
Assays:
[1] = target: T1, P2Y purinoceptor 14 (Homo sapiens) (UniProt Q15391); experiment: Antagonist activity at recombinant human Gi/Go-coupled GP2Y14 receptor expressed in CHOK1 cells assessed as inhibition of […]-induced inhibition of beta-arrestin recruitment at 10 uM by pathhunter assay; type: cell-based
T1 sequence (whole entry): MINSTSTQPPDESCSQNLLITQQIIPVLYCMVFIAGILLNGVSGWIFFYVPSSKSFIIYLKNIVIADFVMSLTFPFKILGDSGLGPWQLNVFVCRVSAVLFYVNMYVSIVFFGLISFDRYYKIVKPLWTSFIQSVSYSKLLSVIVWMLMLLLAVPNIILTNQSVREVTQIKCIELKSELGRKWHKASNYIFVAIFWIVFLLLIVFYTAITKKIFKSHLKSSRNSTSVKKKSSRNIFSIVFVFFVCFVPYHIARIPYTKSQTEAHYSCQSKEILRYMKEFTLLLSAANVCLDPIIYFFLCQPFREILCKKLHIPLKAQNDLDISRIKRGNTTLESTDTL

[2] = target: P2Y purinoceptor 1 (Homo sapiens) (UniProt P47900); experiment: (§1) Antagonist activity at human P2Y1 receptor expressed in human 1321N1 cells assessed as inhibition of ADP-induced intracellular calcium influx at 10 uM preincubated for 20 mins followed by ADP addition measured at 0.4 secs interval for 60 times by Oregon Green BAPTA-1/AM dye-based fluorescence assay; type: functional, cell-based
[3] = target: P2Y purinoceptor 4 (Homo sapiens) (UniProt P51582); experiment: as §1, with “P2Y4” for “P2Y1”, “UTP-induced” for “ADP-induced”, “10 to 100” for “10”, “UTP” for “ADP”; type: functional, cell-based; conditions: dose 10-100 µM
[4] = target: P2Y purinoceptor 12 (Homo sapiens) (UniProt Q9H244); experiment: Antagonist activity at recombinant human Gi/Go-coupled GP2Y12 receptor expressed in CHOK1 cells assessed as inhibition of 2-(Methylthio)ADP-induced inhibition of beta-arrestin recruitment at 10 uM by pathhunter assay; type: cell-based; conditions: CHO-K1
[5] = target: P2Y purinoceptor 6 (Rattus norvegicus) (UniProt Q63371); experiment: as §1, with “rat P2Y6” for “human P2Y1”, “UDP-induced” for “ADP-induced”, “10 to 100” for “10”, “UDP” for “ADP”; type: functional, cell-based; conditions: dose 10-100 µM

Measured: inhibition

P2Y purinoceptor 6 (Rattus norvegicus), sequence (Q63371 whole entry): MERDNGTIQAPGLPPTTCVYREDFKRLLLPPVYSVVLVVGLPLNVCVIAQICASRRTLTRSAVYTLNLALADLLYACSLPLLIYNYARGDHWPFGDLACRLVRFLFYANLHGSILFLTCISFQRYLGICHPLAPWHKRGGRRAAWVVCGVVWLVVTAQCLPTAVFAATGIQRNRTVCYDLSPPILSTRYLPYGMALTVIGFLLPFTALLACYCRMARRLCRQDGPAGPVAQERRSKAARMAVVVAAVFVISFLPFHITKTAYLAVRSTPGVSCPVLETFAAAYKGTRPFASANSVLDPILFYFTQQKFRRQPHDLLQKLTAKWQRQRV
P2Y purinoceptor 12 (Homo sapiens), sequence (Q9H244 whole entry): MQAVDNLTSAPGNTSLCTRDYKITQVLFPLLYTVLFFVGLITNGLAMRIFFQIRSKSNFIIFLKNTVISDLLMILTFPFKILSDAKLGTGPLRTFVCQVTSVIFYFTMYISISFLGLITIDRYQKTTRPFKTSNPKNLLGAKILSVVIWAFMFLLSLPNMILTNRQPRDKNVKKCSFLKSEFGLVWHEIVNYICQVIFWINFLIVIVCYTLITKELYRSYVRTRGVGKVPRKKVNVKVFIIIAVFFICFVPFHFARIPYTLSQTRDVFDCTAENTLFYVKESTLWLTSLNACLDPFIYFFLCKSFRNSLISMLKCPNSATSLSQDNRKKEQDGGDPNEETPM
P2Y purinoceptor 1 (Homo sapiens), sequence (P47900 whole entry): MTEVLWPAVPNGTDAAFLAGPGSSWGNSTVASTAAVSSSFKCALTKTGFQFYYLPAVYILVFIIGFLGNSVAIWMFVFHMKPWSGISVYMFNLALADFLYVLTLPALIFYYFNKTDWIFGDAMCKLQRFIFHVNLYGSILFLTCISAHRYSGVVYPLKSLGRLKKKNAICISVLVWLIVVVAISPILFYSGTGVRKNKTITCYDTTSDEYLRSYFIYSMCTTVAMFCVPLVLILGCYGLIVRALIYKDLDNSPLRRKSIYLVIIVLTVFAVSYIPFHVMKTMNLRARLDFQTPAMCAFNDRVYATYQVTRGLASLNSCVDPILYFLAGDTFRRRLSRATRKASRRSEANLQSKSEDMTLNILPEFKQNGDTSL
P2Y purinoceptor 4 (Homo sapiens), sequence (P51582 whole entry): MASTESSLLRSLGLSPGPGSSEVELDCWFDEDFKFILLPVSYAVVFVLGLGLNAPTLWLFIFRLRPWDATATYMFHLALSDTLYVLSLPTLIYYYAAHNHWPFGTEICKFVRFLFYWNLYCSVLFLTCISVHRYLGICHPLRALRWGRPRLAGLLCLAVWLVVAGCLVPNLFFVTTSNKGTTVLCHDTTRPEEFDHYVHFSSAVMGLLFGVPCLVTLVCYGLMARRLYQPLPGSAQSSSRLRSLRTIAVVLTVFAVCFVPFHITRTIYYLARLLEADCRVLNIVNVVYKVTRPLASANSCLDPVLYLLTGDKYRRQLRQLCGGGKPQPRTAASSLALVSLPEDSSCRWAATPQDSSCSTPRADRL

O=C(Nc1cccc(S(=O)(=O)Oc2cccc([N+](=O)[O-])c2)c1)c1cccc(F)c1
inactive: all assays above

Cc1cccc(C(=O)Nc2ccc(S(=O)(=O)NCc3cccc(Cl)c3)cc2)c1
inactive: all assays above

O=C(Nc1ccc(S(=O)(=O)Oc2cccc([N+](=O)[O-])c2)cc1)c1ccc(Cl)c(Cl)c1
inactive: all assays above

Cc1ccc(C(=O)Nc2ccc(S(=O)(=O)Nc3cccc([N+](=O)[O-])c3)cc2)cc1
inactive: all assays above

Cc1cccc(C(=O)Nc2ccc(S(=O)(=O)Oc3cccc(C#N)c3)cc2)c1
inactive: all assays above

O=C(Nc1ccc(S(=O)(=O)Oc2cccc([N+](=O)[O-])c2)cc1)c1cccc(Br)c1
inactive: all assays above

Cc1cccc(NC(=O)c2cccc(NC(=O)c3cccc([N+](=O)[O-])c3)c2)c1
inactive: all assays above

Cc1cccc(NC(=O)c2ccc(NC(=O)c3cccc([N+](=O)[O-])c3)cc2)c1
inactive: all assays above

CC(=O)c1cccc(C(=O)Nc2ccc(S(=O)(=O)Oc3cccc([N+](=O)[O-])c3)cc2)c1
inactive: all assays above

CCC(=O)c1cccc(C(=O)Nc2ccc(S(=O)(=O)Oc3cccc([N+](=O)[O-])c3)cc2)c1
inactive: all assays above

O=C(Nc1ccc(S(=O)(=O)Oc2cccc([N+](=O)[O-])c2)cc1)c1cccc(C(F)(F)F)c1
inactive: all assays above

Cc1cccc(NC(=O)c2cccc(NC(=O)Nc3cccc(C(=O)O)c3)c2)c1
inactive: all assays above

Cc1cccc(C(=O)Nc2cccc(S(=O)(=O)Oc3cccc([N+](=O)[O-])c3)c2)c1
inactive: all assays above

COC(=O)c1cccc(NC(=O)Nc2cccc(NC(=O)c3cccc(C)c3)c2)c1
inactive: all assays above

Cc1cccc(NC(=O)c2ccc(NC(=O)c3ccc([N+](=O)[O-])cc3)cc2)c1
inactive: all assays above

COc1cccc(C(=O)Nc2ccc(S(=O)(=O)Oc3cccc([N+](=O)[O-])c3)cc2)c1
inactive: all assays above

Cc1cccc(NC(=O)c2cccc(NC(=O)c3ccc([N+](=O)[O-])cc3)c2)c1
inactive: all assays above

Cc1cccc(C(=O)Nc2ccc(NC(=O)c3cccc([N+](=O)[O-])c3)cc2)c1
inactive: all assays above

Cc1cccc(C(=O)Nc2ccc(NC(=O)c3ccc([N+](=O)[O-])cc3)cc2)c1
inactive: all assays above

COC(=O)c1cccc(NC(=O)Nc2ccc(NC(=O)c3cccc(C)c3)cc2)c1
inactive: all assays above

Cc1ccc(C(=O)Nc2ccc(S(=O)(=O)Oc3cccc([N+](=O)[O-])c3)cc2)cc1
inactive: all assays above

COC(=O)c1cccc(NC(=O)Nc2cccc(C(=O)Nc3cccc(C)c3)c2)c1
inactive: all assays above

O=C(Nc1ccc(S(=O)(=O)Oc2cccc([N+](=O)[O-])c2)cc1)c1cccc(Cl)c1
inactive: all assays above

Cc1cccc(C(=O)Nc2cccc(NC(=O)c3ccc([N+](=O)[O-])cc3)c2)c1
inactive: all assays above

O=C(Nc1ccc(S(=O)(=O)Oc2cccc([N+](=O)[O-])c2)cc1)c1ccccc1
inactive: all assays above

O=C(Nc1cccc(S(=O)(=O)Oc2cccc([N+](=O)[O-])c2)c1)c1cccc(Cl)c1
inactive: all assays above

Cc1cccc(C(=O)Nc2cccc(NC(=O)Nc3cccc(C(=O)O)c3)c2)c1
inactive: all assays above

O=C(Nc1cccc(S(=O)(=O)Oc2cccc([N+](=O)[O-])c2)c1)c1ccc(Cl)cc1
inactive: all assays above

Cc1cccc(C(=O)Nc2ccc(S(=O)(=O)Oc3ccc([N+](=O)[O-])cc3)cc2)c1
inactive: all assays above
